Measurements taken from patent US9056832B2, “Pyridine compounds and the users thereof” (Purdue Pharma L.P., priority 2010, dated 2015).
Read-outs that look alike come from different tables or passages of the source.

Target: human Nav1.7 (Homo sapiens (Human), UniProt Q15858)
Assay: FLIPR or FLIPR TETRA sodium dye assay with KCl and test article pre-incubation
Format: cell-based
Conditions: read-out: Nav1.7 IC50 (μM) ± SEM
[1] = recombinant human Nav1.7 in HEK293 cells, CoroNa Green sodium dye, veratridine + scorpion venom

Chain of human Nav1.7 (Q15858 other isoform, or with tags, fused parts or gaps): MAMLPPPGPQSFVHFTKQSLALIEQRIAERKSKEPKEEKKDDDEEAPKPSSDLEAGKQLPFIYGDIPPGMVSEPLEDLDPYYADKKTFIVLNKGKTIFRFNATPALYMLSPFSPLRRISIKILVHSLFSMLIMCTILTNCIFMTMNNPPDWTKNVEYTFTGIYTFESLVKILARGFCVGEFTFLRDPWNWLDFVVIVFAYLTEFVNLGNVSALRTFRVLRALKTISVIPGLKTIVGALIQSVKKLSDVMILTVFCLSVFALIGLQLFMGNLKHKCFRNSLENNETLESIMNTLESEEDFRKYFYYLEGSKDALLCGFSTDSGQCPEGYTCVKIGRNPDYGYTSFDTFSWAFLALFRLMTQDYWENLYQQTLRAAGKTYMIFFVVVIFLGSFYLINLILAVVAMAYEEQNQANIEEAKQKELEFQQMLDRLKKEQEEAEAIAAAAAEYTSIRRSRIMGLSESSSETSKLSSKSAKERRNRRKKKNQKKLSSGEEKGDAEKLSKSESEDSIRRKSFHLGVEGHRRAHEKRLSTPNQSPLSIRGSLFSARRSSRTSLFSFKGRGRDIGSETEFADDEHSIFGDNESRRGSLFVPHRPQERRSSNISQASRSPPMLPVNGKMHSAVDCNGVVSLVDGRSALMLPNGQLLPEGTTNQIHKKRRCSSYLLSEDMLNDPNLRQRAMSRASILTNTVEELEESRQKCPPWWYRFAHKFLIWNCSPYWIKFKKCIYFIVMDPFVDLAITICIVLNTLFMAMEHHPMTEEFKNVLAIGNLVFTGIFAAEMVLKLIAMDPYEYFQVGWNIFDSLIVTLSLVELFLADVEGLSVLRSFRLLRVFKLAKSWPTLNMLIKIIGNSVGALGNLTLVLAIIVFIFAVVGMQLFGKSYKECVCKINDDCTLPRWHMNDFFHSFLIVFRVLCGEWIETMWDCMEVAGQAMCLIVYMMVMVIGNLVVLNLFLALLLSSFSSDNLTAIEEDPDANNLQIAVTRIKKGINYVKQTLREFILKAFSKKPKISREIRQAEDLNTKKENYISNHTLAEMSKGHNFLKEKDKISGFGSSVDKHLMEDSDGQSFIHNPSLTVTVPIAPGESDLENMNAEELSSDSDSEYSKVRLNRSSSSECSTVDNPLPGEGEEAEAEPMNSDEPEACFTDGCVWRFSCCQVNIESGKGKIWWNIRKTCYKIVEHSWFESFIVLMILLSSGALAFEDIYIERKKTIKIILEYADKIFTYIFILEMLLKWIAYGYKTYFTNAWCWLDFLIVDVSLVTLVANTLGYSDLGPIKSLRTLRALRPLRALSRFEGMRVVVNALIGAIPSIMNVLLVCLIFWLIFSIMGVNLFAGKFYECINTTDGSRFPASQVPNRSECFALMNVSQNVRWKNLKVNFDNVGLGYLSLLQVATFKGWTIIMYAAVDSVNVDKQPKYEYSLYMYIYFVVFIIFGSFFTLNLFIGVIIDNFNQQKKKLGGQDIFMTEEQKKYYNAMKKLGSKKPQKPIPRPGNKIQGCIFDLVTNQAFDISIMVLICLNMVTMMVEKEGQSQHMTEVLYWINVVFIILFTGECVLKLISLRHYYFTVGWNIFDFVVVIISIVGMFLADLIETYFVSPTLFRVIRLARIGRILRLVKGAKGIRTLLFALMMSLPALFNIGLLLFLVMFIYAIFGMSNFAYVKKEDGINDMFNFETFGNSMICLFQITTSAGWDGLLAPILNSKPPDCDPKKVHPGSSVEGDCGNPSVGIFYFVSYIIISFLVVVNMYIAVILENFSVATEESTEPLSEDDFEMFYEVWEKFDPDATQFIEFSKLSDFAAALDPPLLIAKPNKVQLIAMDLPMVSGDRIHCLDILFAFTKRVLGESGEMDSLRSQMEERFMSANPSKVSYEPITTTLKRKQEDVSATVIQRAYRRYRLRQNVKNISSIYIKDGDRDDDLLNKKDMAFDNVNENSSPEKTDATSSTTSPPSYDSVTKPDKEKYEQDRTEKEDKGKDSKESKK

SMILES	IC50 [µM]	IC50 [1] [µM]
OCC(O)c1cccc(-c2ccc(Oc3ccc(C(F)(F)F)cc3)cc2)n1 (centres unmarked) [compound 3, 1-(6-(4-(4-(trifluoromethyl)phenoxy)phenyl)pyridin-2-yl)ethane-1,2-diol]	0.07 ± 0.01	
OC[C@@H](O)c1cccc(-c2ccc(Oc3ccc(C(F)(F)F)cc3)cc2)n1 [compound 4, (S)-1-(6-(4-(4-(trifluoromethyl)phenoxy)phenyl)pyridin-2-yl)ethane-1,2-diol]	0.12 ± 0.02	
N#Cc1ccc(Oc2ccc(-c3cccc([C@H](O)CO)n3)cc2)cc1 [compound 6, (S)-4-(4-(6-(1,2-dihydroxyethyl)pyridin-2-yl)phenoxy)benzonitrile]	0.27 ± 0.05	
CC(C)NC(=O)N1CCN(c2cc(-c3ccc(Oc4ccc(F)cc4)cc3)nc([C@@H](O)CO)c2)CC1 [compound 7, (R)-4-(2-(1,2-dihydroxyethyl)-6-(4-(4-fluorophenoxy)phenyl)pyridin-4-yl)-N-isopropyl piperazine-1-carboxamide]		0.32 ± 0.02
N#Cc1ccc(Oc2ccc(-c3cccc(C(O)CO)n3)cc2)cc1 (centres unmarked) [compound 8, 4-(4-(6-(1,2-dihydroxyethyl)pyridin-2-yl)phenoxy) benzonitrile]	0.47 ± 0.09	
N#Cc1ccc(Oc2ccc(-c3cccc(C(O)CO)n3)cc2)c(C(F)(F)F)c1 (centres unmarked) [compound 9, 4-(4-(6-(1,2-dihydroxyethyl)pyridin-2-yl)phenoxy)-3-(trifluoromethyl) benzonitrile]	0.5 ± 0.18	
N#Cc1cc(C(F)(F)F)ccc1Oc1ccc(-c2cccc(C(O)CO)n2)cc1 (centres unmarked) [compound 10, 2-(4-(6-(1,2-dihydroxyethyl)pyridin-2-yl)phenoxy)-5-(trifluoromethyl) benzonitrile]		0.52 ± 0.11
N#Cc1ccc(Oc2ccc(-c3cccc([C@@H](O)CO)n3)cc2)c(C(F)(F)F)c1 [compound 11, (R)-4-(4-(6-(1,2-dihydroxyethyl)pyridin-2-yl)phenoxy)-3-(trifluoromethyl) benzonitrile]	0.82 ± 0.09	
N#Cc1cc(Oc2ccc(-c3cccc(C(O)CO)n3)cc2)ccc1C(F)(F)F (centres unmarked) [compound 12, 5-(4-(6-(1,2-dihydroxyethyl)pyridin-2-yl)phenoxy)-2-(trifluoromethyl) benzonitrile]	0.89 ± 0.02	
N#Cc1ccc(Oc2ccc(-c3cccc([C@@H](O)CO)n3)cc2)cc1 [compound 13, (R)-4-(4-(6-(1,2-dihydroxyethyl)pyridin-2-yl)phenoxy) benzonitrile]	0.89 ± 0.08	
N#Cc1cc(Oc2ccc(-c3cccc([C@@H](O)CO)n3)cc2)ccc1C(F)(F)F [compound 14, (R)-5-(4-(6-(1,2-dihydroxyethyl)pyridin-2-yl)phenoxy)-2-(trifluoromethyl) benzonitrile]	1.3 ± 0.3	
OCC(O)c1cccc(-c2ccc(Oc3ncc(C(F)(F)F)cc3Cl)cc2)n1 (centres unmarked) [compound 15, 1-(6-(4-((3-chloro-5-(trifluoromethyl)pyridin-2-yl)oxy)phenyl)pyridin-2-yl) ethane-1,2-diol]		1.42 ± 0.24
OCC(O)c1cccc(-c2ccc(Oc3ccc(C(F)(F)F)cn3)cc2)n1 (centres unmarked) [compound 16, 1-(6-(4-((5-(trifluoromethyl)pyridin-2-yl)oxy)phenyl)pyridin-2-yl) ethane-1,2-diol]		1.71 ± 0.24
Cc1ccc(Oc2ccc(-c3cccc(C(O)CO)n3)cc2)cn1 (centres unmarked) [compound 17, 1-(6-(4-((6-methylpyridin-3-yl)oxy)phenyl)pyridin-2-yl)ethane-1,2-diol]		2.77 ± 0.41
CC(=O)c1ccc(Oc2ccc(-c3cccc(C(O)CO)n3)cc2)c(C(F)(F)F)c1 (centres unmarked) [compound 20, 1-(4-(4-(6-(1,2-dihydroxyethyl)pyridin-2-yl)phenoxy)-3-(trifluoromethyl)phenyl)ethanone]		2.95 ± 0.76
OC[C@H](O)c1cc(N2CCNCC2)cc(-c2ccc(Oc3ccc(F)cc3)cc2)n1 [compound 21, (R)-1-(6-(4-(4-fluorophenoxy)phenyl)-4-(piperazin-1-yl)pyridin-2-yl)ethane-1,2-diol]		2.97 ± 0.91
N#Cc1ccc(Oc2ccc(-c3cccc([C@H](O)CO)n3)cc2)c(C(F)(F)F)c1 [compound 22, (S)-4-(4-(6-(1,2-dihydroxyethyl)pyridin-2-yl)phenoxy)-3-(trifluoromethyl) benzonitrile]	3.33 ± 0.2	
OC[C@H](O)c1cccc(-c2ccc(Oc3ccc(C(F)(F)F)cn3)cc2)n1 [compound 23, (R)-1-(6-(4-((5-(trifluoromethyl)pyridin-2-yl)oxy)phenyl)pyridin-2-yl)ethane-1,2-diol]		4.89 ± 2.48
OC[C@@H](O)c1cccc(-c2ccc(Oc3ccc(C(F)(F)F)cn3)cc2)n1 [compound 24, (S)-1-(6-(4-((5-(trifluoromethyl)pyridin-2-yl)oxy)phenyl)pyridin-2-yl)ethane-1,2-diol]		6.49 ± 2.94
Cc1ccc(Oc2ccc(-c3cccc(C(O)CO)n3)cc2)cn1 (centres unmarked) [compound 27, 1-(6-(4-((6-methylpyridin-3-yl)oxy)phenyl)pyridin-2-yl)ethane-1,2-diol]		> 20
OCC(O)c1cccc(-c2ccc(Oc3ncccc3C(F)(F)F)cc2)n1 (centres unmarked) [compound 29, 1-(6-(4-((3-(trifluoromethyl)pyridin-2-yl)oxy)phenyl)pyridin-2-yl) ethane-1,2-diol]		2.65 ± 0.37

SMILES	IC50 [µM]	IC50 [1] [µM]
N#Cc1ccc(Oc2ccc(-c3cc([C@H](O)CO)cc(C(N)=O)n3)cc2)cc1C(F)(F)F [compound 31, (S)-6-(4-(4-cyano-3-(trifluoromethyl)phenoxy)phenyl)-4-(1,2-dihydroxyethyl) picolinamide]	0.61 ± 0.1	
NC(=O)c1ccc(Oc2ccc(-c3cc([C@H](O)CO)cc(C(N)=O)n3)cc2)c(C(F)(F)F)c1 [compound 32, (S)-6-(4-(4-carbamoyl-2-(trifluoromethyl)phenoxy)phenyl)-4-(1,2-dihydroxyethyl) picolinamide]		> 20
N#Cc1cc(Oc2ccc(-c3cc([C@H](O)CO)cc(C(N)=O)n3)cc2)ccc1C(F)(F)F [compound 33, (S)-6-(4-(3-cyano-4-(trifluoromethyl)phenoxy)phenyl)-4-(1,2-dihydroxyethyl) picolinamide]		0.5 ± 0.07
N#Cc1cc(Oc2ccc(-c3cc([C@@H](O)CO)cc(C(N)=O)n3)cc2)ccc1C(F)(F)F [compound 34, (R)-6-(4-(3-cyano-4-(trifluoromethyl)phenoxy)phenyl)-4-(1,2-dihydroxyethyl) picolinamide]		0.38 ± 0.08
N#Cc1ccc(Oc2ccc(-c3cc([C@H](O)CO)cc(C(N)=O)n3)cc2)c(C(F)(F)F)c1 [compound 35, (S)-6-(4-(4-cyano-2-(trifluoromethyl)phenoxy)phenyl)-4-(1,2-dihydroxyethyl) picolinamide]	0.4 ± 0.07	
N#Cc1ccc(Oc2ccc(-c3cc([C@@H](O)CO)cc(C(N)=O)n3)cc2)c(C(F)(F)F)c1 [compound 36, (R)-6-(4-(4-cyano-2-(trifluoromethyl)phenoxy)phenyl)-4-(1,2-dihydroxyethyl) picolinamide]	0.22 ± 0.04	
N#Cc1ccc(Oc2ccc(-c3cc([C@H](O)CO)cc(C(N)=O)n3)cc2)cc1 [compound 37, (S)-6-(4-(4-cyanophenoxy)phenyl)-4-(1,2-dihydroxyethyl) picolinamide]		0.44 ± 0.1
N#Cc1ccc(Oc2ccc(-c3cc([C@@H](O)CO)cc(C(N)=O)n3)cc2)cc1 [compound 38, (R)-6-(4-(4-cyanophenoxy)phenyl)-4-(1,2-dihydroxyethyl) picolinamide]		0.35 ± 0.07
NC(=O)c1cc([C@H](O)CO)cc(-c2ccc(Oc3cc(Cl)ccc3F)cc2)n1 [compound 39, (S)-6-(4-(5-chloro-2-fluorophenoxy)phenyl)-4-(1,2-dihydroxyethyl) picolinamide]		0.13 ± 0.03
NC(=O)c1cc([C@H](O)CO)cc(-c2ccc(Oc3ccc(F)cc3)cc2)n1 [compound 41, (S)-4-(1,2-dihydroxyethyl)-6-(4-(4-fluorophenoxy)phenyl)picolinamide]		0.24 ± 0.04
O=C(NCCN1CCCCC1)c1cc([C@H](O)CO)cc(-c2ccc(Oc3ccc(F)cc3)cc2)n1 [compound 42, (S)-4-(1,2-dihydroxyethyl)-6-(4-(4-fluorophenoxy)phenyl)-N-(2-(piperidin-1-yl)ethyl) picolinamide]		1.25 ± 0.15
CN(c1ccccc1)c1cc(C(N)=O)nc(-c2ccc(Oc3ccc(F)cc3)cc2)c1 [compound 43, 6-(4-(4-fluorophenoxy)phenyl)-4-(methyl (phenyl)amino) picolinamide]		0.93 ± 0.17
N#CCCN(c1ccccc1)c1cc(C(N)=O)nc(-c2ccc(Oc3ccc(F)cc3)cc2)c1 [compound 44, 4-((2-cyanoethyl)(phenyl)amino)-6-(4-(4-fluorophenoxy)phenyl) picolinamide]	3.29 ± 1.17	
NC(=O)c1cc(NCc2cccnc2)cc(-c2ccc(Oc3ccc(F)cc3)cc2)n1 [compound 45, 6-(4-(4-fluorophenoxy)phenyl)-4-((pyridin-3-ylmethyl)amino) picolinamide]		0.15 ± 0.01
NC(=O)c1cc(NCc2ccncc2)cc(-c2ccc(Oc3ccc(F)cc3)cc2)n1 [compound 46, 6-(4-(4-fluorophenoxy)phenyl)-4-((pyridin-4-ylmethyl)amino) picolinamide]	0.48 ± 0.07	
NC(=O)c1cc(NCc2ccccn2)cc(-c2ccc(Oc3ccc(F)cc3)cc2)n1 [compound 47, 6-(4-(4-fluorophenoxy)phenyl)-4-((pyridin-2-ylmethyl)amino) picolinamide]		0.22 ± 0.06
NC(=O)c1cc(NCCN2CCS(=O)(=O)CC2)cc(-c2ccc(Oc3ccc(F)cc3)cc2)n1 [compound 48, 4-((2-(1,1-dioxidothiomorpholino)ethyl)amino)-6-(4-(4-fluorophenoxy)phenyl) picolinamide]		0.09 ± 0.06
NC(=O)c1cc(NCc2ncccn2)cc(-c2ccc(Oc3ccc(F)cc3)cc2)n1 [compound 49, 6-(4-(4-fluorophenoxy)phenyl)-4-((pyrimidin-2-ylmethyl)amino) picolinamide]		0.1 ± 0.03
CS(=O)(=O)NCc1cc(C(N)=O)nc(-c2ccc(Oc3ccc(F)cc3)cc2)c1 [compound 50, 6-(4-(4-fluorophenoxy)phenyl)-4-(methylsulfonamido-methyl)picolinamide]		0.14 ± 0.03
NC(=O)c1cc(CN2CCNCC2)cc(-c2ccc(Oc3ccc(F)cc3)cc2)n1 [compound 51, 6-(4-(4-fluorophenoxy)phenyl)-4-(piperazin-1-ylmethyl)picolinamide]		0.18 ± 0.3
